# From the NIST ThermoML archive (doi:10.1021/je900689m)
# Numbers after ± are expanded uncertainties.
# Key:
# [1] = 101 kPa, Liquid; for viscosity: Capillary tube (Ostwald / Ubbelohde) method
# [2] = xn = mol fraction of the nth substance listed; settings: 101 kPa, Liquid; for viscosity: Capillary tube (Ostwald / Ubbelohde) method
smiles,measurement,setting,value
CC(C)c1ccccc1 [isopropylbenzene],mass density,[1]; 303.15 K,852.7 ± 0.7 kg/m3
same,speed of sound,[1]; 303.15 K,1280 ± 6 m/s
same,viscosity,[1]; 303.15 K,0.69 ± 0.011 mPa·s
same,mass density,[1]; 308.15 K,849 ± 0.7 kg/m3
same,speed of sound,[1]; 308.15 K,1264 ± 6 m/s
same,viscosity,[1]; 308.15 K,0.651 ± 0.011 mPa·s
same,mass density,[1]; 313.15 K,845.4 ± 0.7 kg/m3
same,speed of sound,[1]; 313.15 K,1248 ± 6 m/s
same,viscosity,[1]; 313.15 K,0.611 ± 0.011 mPa·s
CC(C)c1ccccc1 [isopropylbenzene] + CCOC=O,viscosity,"[2]; 303.15 K, x2 = 0",0.69 ± 0.011 mPa·s
same,viscosity,"[2]; 303.15 K, x2 = 0.1603",0.63 ± 0.011 mPa·s
same,viscosity,"[2]; 303.15 K, x2 = 0.3007",0.577 ± 0.011 mPa·s
same,viscosity,"[2]; 303.15 K, x2 = 0.4234",0.534 ± 0.011 mPa·s
same,viscosity,"[2]; 303.15 K, x2 = 0.5352",0.5 ± 0.011 mPa·s
same,viscosity,"[2]; 303.15 K, x2 = 0.633",0.468 ± 0.011 mPa·s
same,viscosity,"[2]; 303.15 K, x2 = 0.7203",0.444 ± 0.011 mPa·s
same,viscosity,"[2]; 303.15 K, x2 = 0.801",0.424 ± 0.011 mPa·s
same,viscosity,"[2]; 303.15 K, x2 = 0.8724",0.407 ± 0.011 mPa·s
same,viscosity,"[2]; 303.15 K, x2 = 0.9399",0.39 ± 0.011 mPa·s
same,mass density,"[2]; 303.15 K, x2 = 0",852.7 ± 0.7 kg/m3
same,speed of sound,"[2]; 303.15 K, x2 = 0",1280 ± 6 m/s
same,mass density,"[2]; 303.15 K, x2 = 0.1603",857 ± 0.7 kg/m3
same,speed of sound,"[2]; 303.15 K, x2 = 0.1603",1252 ± 6 m/s
same,mass density,"[2]; 303.15 K, x2 = 0.3007",861.7 ± 0.7 kg/m3
same,speed of sound,"[2]; 303.15 K, x2 = 0.3007",1228 ± 6 m/s
same,mass density,"[2]; 303.15 K, x2 = 0.4234",866.5 ± 0.7 kg/m3
same,speed of sound,"[2]; 303.15 K, x2 = 0.4234",1204 ± 5 m/s
same,mass density,"[2]; 303.15 K, x2 = 0.5352",871.9 ± 0.7 kg/m3
same,speed of sound,"[2]; 303.15 K, x2 = 0.5352",1180 ± 5 m/s
same,mass density,"[2]; 303.15 K, x2 = 0.633",877.4 ± 0.7 kg/m3
same,speed of sound,"[2]; 303.15 K, x2 = 0.633",1160 ± 5 m/s
same,mass density,"[2]; 303.15 K, x2 = 0.7203",882.8 ± 0.7 kg/m3
same,speed of sound,"[2]; 303.15 K, x2 = 0.7203",1144 ± 5 m/s
same,mass density,"[2]; 303.15 K, x2 = 0.801",888.9 ± 0.7 kg/m3
same,speed of sound,"[2]; 303.15 K, x2 = 0.801",1128 ± 5 m/s
same,mass density,"[2]; 303.15 K, x2 = 0.8724",894.8 ± 0.7 kg/m3
same,speed of sound,"[2]; 303.15 K, x2 = 0.8724",1116 ± 5 m/s
same,mass density,"[2]; 303.15 K, x2 = 0.9399",901.3 ± 0.7 kg/m3
same,speed of sound,"[2]; 303.15 K, x2 = 0.9399",1104 ± 5 m/s
same,viscosity,"[2]; 308.15 K, x2 = 0",0.651 ± 0.011 mPa·s
same,viscosity,"[2]; 308.15 K, x2 = 0.1603",0.585 ± 0.011 mPa·s
same,viscosity,"[2]; 308.15 K, x2 = 0.3007",0.537 ± 0.011 mPa·s
same,viscosity,"[2]; 308.15 K, x2 = 0.4234",0.497 ± 0.011 mPa·s
same,viscosity,"[2]; 308.15 K, x2 = 0.5352",0.463 ± 0.011 mPa·s
same,viscosity,"[2]; 308.15 K, x2 = 0.633",0.437 ± 0.011 mPa·s
same,viscosity,"[2]; 308.15 K, x2 = 0.7203",0.414 ± 0.011 mPa·s
same,viscosity,"[2]; 308.15 K, x2 = 0.801",0.394 ± 0.011 mPa·s
same,viscosity,"[2]; 308.15 K, x2 = 0.8724",0.382 ± 0.011 mPa·s
same,viscosity,"[2]; 308.15 K, x2 = 0.9399",0.362 ± 0.01 mPa·s
same,mass density,"[2]; 308.15 K, x2 = 0",849 ± 0.7 kg/m3
same,speed of sound,"[2]; 308.15 K, x2 = 0",1264 ± 6 m/s
same,mass density,"[2]; 308.15 K, x2 = 0.1603",853.2 ± 0.7 kg/m3
same,speed of sound,"[2]; 308.15 K, x2 = 0.1603",1240 ± 6 m/s
same,mass density,"[2]; 308.15 K, x2 = 0.3007",857.7 ± 0.7 kg/m3
same,speed of sound,"[2]; 308.15 K, x2 = 0.3007",1216 ± 5 m/s
same,mass density,"[2]; 308.15 K, x2 = 0.4234",862.4 ± 0.7 kg/m3
same,speed of sound,"[2]; 308.15 K, x2 = 0.4234",1192 ± 5 m/s
same,mass density,"[2]; 308.15 K, x2 = 0.5352",867.7 ± 0.7 kg/m3
same,speed of sound,"[2]; 308.15 K, x2 = 0.5352",1168 ± 5 m/s
same,mass density,"[2]; 308.15 K, x2 = 0.633",872.9 ± 0.7 kg/m3
same,speed of sound,"[2]; 308.15 K, x2 = 0.633",1148 ± 5 m/s
same,mass density,"[2]; 308.15 K, x2 = 0.7203",878.2 ± 0.7 kg/m3
same,speed of sound,"[2]; 308.15 K, x2 = 0.7203",1132 ± 5 m/s
same,mass density,"[2]; 308.15 K, x2 = 0.801",884.2 ± 0.7 kg/m3
same,speed of sound,"[2]; 308.15 K, x2 = 0.801",1116 ± 5 m/s
same,mass density,"[2]; 308.15 K, x2 = 0.8724",890 ± 0.7 kg/m3
same,speed of sound,"[2]; 308.15 K, x2 = 0.8724",1100 ± 5 m/s
same,mass density,"[2]; 308.15 K, x2 = 0.9399",896.4 ± 0.7 kg/m3
same,speed of sound,"[2]; 308.15 K, x2 = 0.9399",1088 ± 5 m/s
same,viscosity,"[2]; 313.15 K, x2 = 0",0.611 ± 0.011 mPa·s
same,viscosity,"[2]; 313.15 K, x2 = 0.1603",0.544 ± 0.011 mPa·s
same,viscosity,"[2]; 313.15 K, x2 = 0.3007",0.499 ± 0.011 mPa·s
same,viscosity,"[2]; 313.15 K, x2 = 0.4234",0.46 ± 0.011 mPa·s
same,viscosity,"[2]; 313.15 K, x2 = 0.5352",0.431 ± 0.011 mPa·s
same,viscosity,"[2]; 313.15 K, x2 = 0.633",0.409 ± 0.011 mPa·s
same,viscosity,"[2]; 313.15 K, x2 = 0.7203",0.386 ± 0.011 mPa·s
same,viscosity,"[2]; 313.15 K, x2 = 0.801",0.367 ± 0.01 mPa·s
same,viscosity,"[2]; 313.15 K, x2 = 0.8724",0.359 ± 0.01 mPa·s
same,viscosity,"[2]; 313.15 K, x2 = 0.9399",0.34 ± 0.01 mPa·s
same,mass density,"[2]; 313.15 K, x2 = 0",845.4 ± 0.7 kg/m3
same,speed of sound,"[2]; 313.15 K, x2 = 0",1248 ± 6 m/s
same,mass density,"[2]; 313.15 K, x2 = 0.1603",849.4 ± 0.7 kg/m3
same,speed of sound,"[2]; 313.15 K, x2 = 0.1603",1228 ± 6 m/s
same,mass density,"[2]; 313.15 K, x2 = 0.3007",853.7 ± 0.7 kg/m3
same,speed of sound,"[2]; 313.15 K, x2 = 0.3007",1200 ± 5 m/s
same,mass density,"[2]; 313.15 K, x2 = 0.4234",858.3 ± 0.7 kg/m3
same,speed of sound,"[2]; 313.15 K, x2 = 0.4234",1176 ± 5 m/s
same,mass density,"[2]; 313.15 K, x2 = 0.5352",863.3 ± 0.7 kg/m3
same,speed of sound,"[2]; 313.15 K, x2 = 0.5352",1152 ± 5 m/s
same,mass density,"[2]; 313.15 K, x2 = 0.633",868.4 ± 0.7 kg/m3
same,speed of sound,"[2]; 313.15 K, x2 = 0.633",1132 ± 5 m/s
same,mass density,"[2]; 313.15 K, x2 = 0.7203",873.7 ± 0.7 kg/m3
same,speed of sound,"[2]; 313.15 K, x2 = 0.7203",1116 ± 5 m/s
same,mass density,"[2]; 313.15 K, x2 = 0.801",879.3 ± 0.7 kg/m3
same,speed of sound,"[2]; 313.15 K, x2 = 0.801",1100 ± 5 m/s
same,mass density,"[2]; 313.15 K, x2 = 0.8724",884.9 ± 0.7 kg/m3
same,speed of sound,"[2]; 313.15 K, x2 = 0.8724",1084 ± 5 m/s
same,mass density,"[2]; 313.15 K, x2 = 0.9399",891.1 ± 0.7 kg/m3
same,speed of sound,"[2]; 313.15 K, x2 = 0.9399",1068 ± 5 m/s
